Consider eleven molecules from ChEMBL document CHEMBL4321783, “Recent Progress in Natural-Product-Inspired Programs Aimed To Address Antibiotic Resistance and Tolerance” (J Med Chem, 2019).

Data set [1] has as its system Klebsiella pneumoniae. The data set is described as follows: Antibacterial activity against Klebsiella pneumoniae 6-73 by broth microdilution method. The class given is functional.
Data set [2] deals with Staphylococcus aureus. In words: Antibacterial activity against Staphylococcus aureus NRS3 by broth microdilution method. In kind it is functional. In general terms: In broth dilution the organism is exposed to a series of concentrations in liquid medium.
Data set [3] deals with Enterobacter cloacae. The data set is described as follows: Antibacterial activity against Enterobacter cloacae ATCC 29893 by broth microdilution method. In kind it is functional.
Data set [4] has as its system Staphylococcus aureus. The data set is described as follows: Antibacterial activity against Staphylococcus aureus ATCC 29213 by broth microdilution method. In kind it is functional.
Data set [5] in a line: Drug accumulation in Escherichia coli MG1655 assessed per 10^12 CFU at 50 uM incubated for 10 mins under shaking condition by LC-MS/MS analysis. The class given is ADME, K-12 substr. MG1655.
Data set [6] deals with Enterobacter cloacae. The data set is described as follows: Antibacterial activity against Enterobacter cloacae 3-46 by broth microdilution method. The class given is functional.
The test system of data set [7] is Escherichia coli. In words: Antibacterial activity against Escherichia coli MG1655 by broth microdilution method. In kind it is functional. The note with it: K-12 substr. MG1655.
The test system of data set [8] is Klebsiella pneumoniae. The data set is described as follows: Antibacterial activity against Klebsiella pneumoniae 4-38 by broth microdilution method. In kind it is functional.
In data set [9] the test system is Escherichia coli. The data set is described as follows: Antibacterial activity against Escherichia coli ELZ4017 by broth microdilution method. The class given is functional.
In data set [10] the test system is Escherichia coli. In words: Antibacterial activity against Escherichia coli ELZ4072 by broth microdilution method. The class given is functional.
Data set [11] deals with Escherichia coli. The data set is described as follows: Antibacterial activity against Escherichia coli ELZ4239 by broth microdilution method. The class given is functional.
Data set [12] deals with Escherichia coli. The data set is described as follows: Antibacterial activity against Escherichia coli ELZ4346 by broth microdilution method. The class given is functional.
Data set [13] relates to Escherichia coli. In words: Antibacterial activity against Escherichia coli ELZ4081 by broth microdilution method. In kind it is functional.
Data set [14] concerns Escherichia coli. The data set is described as follows: Antibacterial activity against Escherichia coli BAA-2469 by broth microdilution method. In kind it is functional.
For data set [15], the system named is Escherichia coli. In words: Antibacterial activity against Escherichia coli ELZ4045 by broth microdilution method. In kind it is functional.
Data set [16] concerns Klebsiella pneumoniae. In words: Antibacterial activity against Klebsiella pneumoniae ATCC 27736 by broth microdilution method. In kind it is functional.
The test system of data set [17] is Enterobacter cloacae. In words: Antibacterial activity against Enterobacter cloacae 1-60 by broth microdilution method. In kind it is functional.
Data set [18] concerns Pseudomonas aeruginosa. The data set is described as follows: Growth inhibition of Pseudomonas aeruginosa PA14 after 24 hrs. The note with it: PA14, 24 h. The class given is functional, organism-based.
Data set [19] deals with Staphylococcus aureus. The data set is described as follows: Antibacterial activity against methicillin-resistant Staphylococcus aureus NRS119 by CLSI-based broth microdilution method. In kind it is functional, organism-based.
The subject of data set [20] is Pseudomonas aeruginosa. In words: Antibacterial activity against Pseudomonas aeruginosa KW799/61 after 20 hrs under iron-deficient medium by broth microdilution method. In kind it is functional. Particulars: KW799/61, 20 h.
Data set [21] relates to Pseudomonas aeruginosa. The data set is described as follows: Antibacterial activity against Pseudomonas aeruginosa PA4 after 20 hrs under iron-rich medium by broth microdilution method. In kind it is functional. The note with it: PA4, 20 h.
In data set [22] the test system is Pseudomonas aeruginosa. The data set is described as follows: Antibacterial activity against Pseudomonas aeruginosa PA4 after 20 hrs under iron-deficient medium by broth microdilution method. In kind it is functional. Particulars: PA4, 20 h.
The test system of data set [23] is Pseudomonas aeruginosa. In words: Antibacterial activity against Pseudomonas aeruginosa PAO1 after 20 hrs under iron-deficient medium by broth microdilution method. In kind it is functional. Particulars: PAO1, 20 h.
Data set [24] deals with Pseudomonas aeruginosa. In words: Antibacterial activity against Pseudomonas aeruginosa KW799 after 20 hrs under iron-deficient medium by broth microdilution method. In kind it is functional. Particulars: KW799, 20 h.
The test system of data set [25] is Pseudomonas aeruginosa. In words: Antibacterial activity against Pseudomonas aeruginosa KW799 after 20 hrs under iron-rich medium by broth microdilution method. The class given is functional. The note with it: KW799, 20 h.
Data set [26] relates to Pseudomonas aeruginosa. The data set is described as follows: Antibacterial activity against Pseudomonas aeruginosa PAO1 after 20 hrs under iron-rich medium by broth microdilution method. In kind it is functional. The note with it: PAO1, 20 h.
In data set [27] the test system is Pseudomonas aeruginosa. In words: Antibacterial activity against Pseudomonas aeruginosa KW799/61 after 20 hrs under iron-rich medium by broth microdilution method. The note with it: KW799/61, 20 h. In kind it is functional.
Data set [28] concerns Staphylococcus aureus. The data set is described as follows: Antibacterial activity against methicillin-resistant Staphylococcus aureus NRS384 expressing MsrA by broth microdilution method. The class given is functional.
Data set [29] concerns Enterococcus faecalis. The data set is described as follows: Antibacterial activity against Enterococcus faecalis ATCC 29212 by broth microdilution method. In kind it is functional.
The subject of data set [30] is Staphylococcus aureus. The data set is described as follows: Antibacterial activity against Staphylococcus aureus BAA-977 expressing iermA by broth microdilution method. In kind it is functional.
In data set [31] the test system is Pseudomonas aeruginosa. In words: Antibacterial activity against Pseudomonas aeruginosa ATCC 27853 by broth microdilution method. The class given is functional.
Data set [32] has as its system Streptococcus pneumoniae. In words: Antibacterial activity against Streptococcus pneumoniae ATCC 49619 by broth microdilution method. In kind it is functional.
The test system of a further data set is Acinetobacter baumannii. In words: Antibacterial activity against Acinetobacter baumannii ATCC 19606 by broth microdilution method. The class given is functional. Particulars: ATCC 19606 = CIP 70.34 = JCM 6841.
For data set [33], the system named is Enterococcus faecalis. In words: Antibacterial activity against Enterococcus faecalis UNT-047 expressing ermB by broth microdilution method. In kind it is functional.
For data set [34], the system named is Streptococcus pneumoniae. In words: Antibacterial activity against Streptococcus pneumoniae UNT-042 expressing ermB/mefA by broth microdilution method. In kind it is functional.
Data set [35] concerns Staphylococcus epidermidis. In words: Antibacterial activity against Staphylococcus epidermidis ATCC 12228 after 16 to 20 hrs by CLSI protocol based broth microdilution method. In kind it is functional.
The test system of data set [36] is Staphylococcus aureus. In words: Antibacterial activity against Staphylococcus aureus ATCC 25923 after 16 to 20 hrs by CLSI protocol based broth microdilution method. The class given is functional.
In data set [37] the test system is Staphylococcus aureus. In words: Antibacterial activity against methicillin-resistant Staphylococcus aureus 757 after 20 hrs by CLSI-based microdilution method. The class given is functional. The note with it: Staphylococcus aureus, 757, 20 h.
For a further data set, the system named is Haemophilus influenzae. The data set is described as follows: Antibacterial activity against Haemophilus influenzae 1244 after 20 hrs by CLSI-based microdilution method. In kind it is functional. Particulars: Haemophilus influenzae, 1244, 20 h.
A further data set has as its system Enterococcus faecium. The data set is described as follows: Antibacterial activity against […] Enterococcus faecium 1092 after 20 hrs by CLSI-based microdilution method. In kind it is functional. Particulars: Enterococcus faecium, 1092, 20 h.
Data set [38] deals with Staphylococcus aureus. In words: Antibacterial activity against methicillin-resistant Staphylococcus aureus 2011 after 20 hrs by CLSI-based microdilution method. In kind it is functional. Particulars: Staphylococcus aureus, 2011, 20 h.
Data set [39] deals with Escherichia coli. The data set is described as follows: Antibacterial activity against Escherichia coli 2271 after 20 hrs by CLSI-based microdilution method. The class given is functional. Particulars: Escherichia coli, 2271, 20 h.
The subject of data set [40] is Streptococcus pneumoniae. The data set is described as follows: Antibacterial activity against Streptococcus pneumoniae 911 after 20 hrs by CLSI-based microdilution method. In kind it is functional. Particulars: Streptococcus pneumoniae, 911, 20 h.
Data set [41] has as its system Escherichia coli. In words: Antibacterial activity against Escherichia coli 121 after 20 hrs by CLSI-based microdilution method. In kind it is functional. Particulars: O157:H7 str. 121, 20 h.

Structures are written as SMILES. Values after ≈ are worked out from the molar mass of the structure shown. Positions of bridges follow the written chain, without caps; N, C: chain ends. Non-standard residues stand in square brackets, D forms with d. Residues, ends and D or L forms follow the SMILES beside them. *: point of attachment. Octatrienoyl(2E,4E,6E) = C/C=C/C=C/C=C/C(=O)*; Pro(4R-Me) = C[C@H]1CN[C@H](C(=O)O)C1; NMeA = CN[C@@H](C)C(=O)O

In the case of `Cc1cc(=O)n(C)c2c3c4c(cc12)c(C)cc(=O)n4CCO3`, the MIC in the data set on Klebsiella pneumoniae [1] was greater than 32 µg/mL; in the data set with Staphylococcus aureus [2] it was 0.06 to 1 µg/mL (≈ 0.202 to 3.37 µM); in the data set on Enterobacter cloacae [3], no less than 32 µg/mL; against Staphylococcus aureus [4], 0.06 to 1 µg/mL (≈ 0.202 to 3.37 µM); with Enterobacter cloacae [6], no less than 32 µg/mL; against Escherichia coli [7], greater than 32 µg/mL. In addition, the MIC in the data set with Klebsiella pneumoniae [8], in the data set with Escherichia coli [9], against Escherichia coli [10], in the data set on Escherichia coli [11], with Escherichia coli [12] and against Escherichia coli [13] was greater than 32 µg/mL throughout. Further, the MIC against Escherichia coli [14] was greater than 32 µg/mL; against Escherichia coli [15], greater than 32 µg/mL; against Klebsiella pneumoniae [16], greater than 32 µg/mL; in the data set on Enterobacter cloacae [17], no less than 32 µg/mL. The Drug uptake in data set [5] is listed as 298 nmol.
Regarding `CCCCCC[C@H](CCCCC[C@@H](O)C(N)=O)OC(=O)[C@@H]1CCCCN1C(=O)c1ccccc1O`, the half-maximal inhibitory concentration (IC50) (usually the concentration that inhibits the measured activity by half) in the data set on Pseudomonas aeruginosa [18] is greater than 250 µM.
On the same count and under the same terms, with `CCCCCC[C@H](CCCCC[C@@H](O)C(N)=O)OC(=O)[C@@H]1CC(F)=CN1C(=O)c1ccccc1O` the figure was 0.019 µM; with `CCCCCC[C@H](CCCCC[C@@H](O)C(N)=O)NC(=O)[C@@H]1CC=CN1C(=O)c1ccccc1O`, greater than 250 µM.
`C[C@@H]1C[C@H]2C(=O)OC[C@H](NC(=O)[C@H](Cc3cc(F)cc(F)c3)NC(=O)CCC3CCCCC3)C(=O)N3CCC[C@H]3C(=O)N3CCCC[C@H]3C(=O)N[C@@H](C)C(=O)N2C1`: in the data set on Staphylococcus aureus [19], the IC50 is 0.5 µM.
Still for that read-out and setting: with `C/C=C/C=C/C=C/C(=O)N[C@@H](Cc1ccccc1)C(=O)N[C@H]1COC(=O)[C@@H]2C[C@@H](C)CN2C(=O)[C@H](C)NC(=O)[C@H](C)N(C)C(=O)[C@@H]2CCCN2C1=O` ({Octatrienoyl(2E,4E,6E)}-FSP[NMeA]A[Pro(4R-Me)]; ester 2-C) the figure was 8.76 µM.
With `CC1(C)S[C@@H]2[C@H](NC(=O)[C@H](N)c3ccc(O)cc3)C(=O)N2[C@H]1C(=O)O` [AMOXICILLIN], the MIC against Pseudomonas aeruginosa [20], against Pseudomonas aeruginosa [21], in the data set with Pseudomonas aeruginosa [22], with Pseudomonas aeruginosa [23], against Pseudomonas aeruginosa [24] and against Pseudomonas aeruginosa [25] was greater than 100 µM throughout. For the same molecule, the MIC in the data set on Pseudomonas aeruginosa [26] and with Pseudomonas aeruginosa [27] was greater than 100 µM each time.
In the case of `CC[C@H]1OC(=O)[C@H](C)[C@@H](O[C@H]2C[C@@](C)(OC)[C@@H](O)[C@H](C)O2)[C@H](C)[C@@H](O[C@@H]2O[C@H](C)C[C@H](N(C)C)[C@H]2O)[C@](C)(O)C[C@@H](C)C(=O)[C@H](C)[C@@H](O)[C@]1(C)O` [ERYTHROMYCIN], the MIC was 64 µg/mL (≈ 87.2 µM) in the data set on Staphylococcus aureus [28]; 1 µg/mL (≈ 1.36 µM) in the data set with Enterococcus faecalis [29]; 0.5 µg/mL (≈ 0.681 µM) with Staphylococcus aureus [4]; greater than 256 µg/mL in the data set on Staphylococcus aureus [30]; 64 µg/mL (≈ 87.2 µM) against Pseudomonas aeruginosa [31]; 0.03 µg/mL (≈ 0.0409 µM) with Streptococcus pneumoniae [32]. The MIC was 16 µg/mL (≈ 21.8 µM) with Acinetobacter baumannii, greater than 256 µg/mL in the data set on Enterococcus faecalis [33] and greater than 256 µg/mL against Streptococcus pneumoniae [34].
Turning to `c1ccc2nc3ccccc3nc2c1` [PHENAZINE], the MIC (in data set [35]; against Staphylococcus aureus [36]) was 6.25 µM (≈ 1.13 µg/mL) throughout.
For the molecule `Cn1c2cccc(=O)c-2nc2ccccc21` [PYOCYANIN], the MIC (in data set [35]; against Staphylococcus aureus [36]) was 50 µM (≈ 10.5 µg/mL) each time.
As to `CN(C)[C@@H]1C(O)=C(C(N)=O)C(=O)[C@@]2(O)C(O)=C3C(=O)c4c(O)cccc4[C@@](C)(O)[C@H]3C[C@@H]12` [TETRACYCLINE], the MIC in the data set with Staphylococcus aureus [37] was 64 µg/mL (≈ 144 µM); against Haemophilus influenzae it was 16 µg/mL (≈ 36 µM); against Enterococcus faecium it was greater than 64 µg/mL; against Staphylococcus aureus [38] it was 32 µg/mL (≈ 72 µM); against Escherichia coli [39], 64 µg/mL (≈ 144 µM); against Streptococcus pneumoniae [40], 64 µg/mL (≈ 144 µM). This molecule also yielded an MIC against Escherichia coli [41] of 64 µg/mL (≈ 144 µM).
